ChEMBL document CHEMBL5528049, “Discovery of (4-Pyrazolyl)-2-aminopyrimidines as Potent and Selective Inhibitors of Cyclin-Dependent Kinase 2” (J Med Chem, 2024)

How the values were obtained:
[1] = Half-life in cynomolgus monkey at 0.3 mg/kg, iv administered as cassette dose and measured upto 24 hrs by LC-MS/MS analysis; assay type: ADME, organism-based, Macaca fascicularis; settings: in vivo
[2] = Half-life in Sprague-Dawley rat at 0.5 mg/kg, iv administered as cassette dose and measured upto 24 hrs by LC-MS/MS analysis; assay type: ADME, organism-based; settings: in vivo
[3] = Protein binding in human plasma assessed as free fraction incubated for 2 hrs by LC-MS/MS analysis; assay type: ADME, cell-free
[4] = target: hERG (KCNH2) (Homo sapiens, UniProt Q12809); assay: Inhibition of human ERG at 10 uM by patch clamp method relative to control; assay type: toxicity
[5] = Volume of distribution at steady state in cynomolgus monkey at 0.3 mg/kg, iv administered as cassette dose and measured upto 24 hrs by LC-MS/MS analysis; assay type: ADME, organism-based, Macaca fascicularis; settings: in vivo, read-out: Vdss
[6] = Solubility of compound in SGF by HPLC analysis
[7] = In vivo inhibition of CDK2 in athymic nude mouse assessed as reduction in retinoblastoma protein phosphorylation at 30 mg/kg, po administered once daily for 5 days and measured after 24 hrs relative to control; assay type: functional; settings: 144 h, time 6 day
[8] = Hepatic blood flow in cynomolgus monkey at 0.3 mg/kg, iv administered as cassette dose and measured upto 24 hrs by LC-MS/MS analysis; assay type: ADME, organism-based, Macaca fascicularis; settings: in vivo
[9] = AUC in cynomolgus monkey at 2 mg/kg, po administered as cassette dose and measured upto 24 hrs by LC-MS/MS analysis; assay type: ADME, organism-based, Macaca fascicularis; settings: in vivo
[10] = Toxicity in athymic nude mouse xenografted with human OVCAR-3 cells assessed as animal death at 30 mg/kg, po administered once daily for 28 days; assay type: organism-based; settings: in vivo, 672 h, time 28 day
[11] = Apparent permeability from apical to basolateral side in human Caco-2 cells at 50 uM incubated for 120 mins by LCMS analysis
[12] = Toxicity in athymic nude mouse xenografted with human OVCAR-3 cells assessed as body weight loss at 30 mg/kg, po administered once daily for 28 days; assay type: organism-based; settings: in vivo, 672 h, time 28 day
[13] = system: OVCAR-3; assay: Antitumor activity against human OVCAR-3 cells xenografted in athymic nude mouse assessed as tumor growth inhibition at 30 mg/kg, po administered once daily for 28 days relative to control; assay type: functional; settings: OVCAR-3, 672 h, time 28 day, read-out: TGI
[14] = Drug concentration in athymic nude mouse plasma at 30 mg/kg, po administered as […] for 5 days and measured after 24 hrs; assay type: ADME, organism-based; settings: in vivo, 144 h, BLD = below limit of detection, time 6 day
[15] = Oral bioavailability in cynomolgus monkey at 2 mg/kg administered as cassette dose and measured upto 24 hrs by LC-MS/MS analysis; assay type: ADME, organism-based, Macaca fascicularis; settings: in vivo
[16] = Oral bioavailability in Sprague-Dawley rat at 3 mg/kg administered as cassette dose and measured upto 24 hrs by LC-MS/MS analysis; assay type: ADME, organism-based; settings: in vivo
[17] = target: Cytochrome P450 3A4 (Homo sapiens, UniProt P08684); assay: Inhibition of CYP3A4 in human liver microsomes using midazolam/testosterone as substrate in presence of NADPH by LC-MS/MS analysis; assay type: ADME, Microsome
[18] = Hepatic blood flow in Sprague-Dawley rat at 0.5 mg/kg, iv administered as cassette dose and measured upto 24 hrs by LC-MS/MS analysis; assay type: ADME, organism-based; settings: in vivo
[19] = AUC in Sprague-Dawley rat at 3 mg/kg, po administered as cassette dose and measured upto 24 hrs by LC-MS/MS analysis; assay type: ADME, organism-based; settings: in vivo
[20] = target: Cytochrome P450 2C9 (Homo sapiens, UniProt P11712); assay: Inhibition of CYP2C9 in human liver microsomes using diclofenac as substrate in presence of NADPH by LC-MS/MS analysis; assay type: ADME, Microsome
[21] = Toxicity in athymic nude mouse xenografted with human OVCAR-3 cells assessed as adverse effect at 30 mg/kg, po administered once daily for 28 days; assay type: organism-based; settings: in vivo, 672 h, time 28 day
[22] = target: Cytochrome P450 2D6 (Homo sapiens, UniProt P10635); assay: Inhibition of CYP2D6 in human liver microsomes using bufuralol as substrate in presence of NADPH by LC-MS/MS analysis; assay type: ADME, Microsome
[23] = target: T1, Cytochrome P450 2C8 (Homo sapiens, UniProt P10632); assay: Inhibition of CYP2C8 in human liver microsomes using amodiaquine as substrate in presence of NADPH by LC-MS/MS analysis; assay type: ADME, Microsome
T1 sequence (P10632 whole entry): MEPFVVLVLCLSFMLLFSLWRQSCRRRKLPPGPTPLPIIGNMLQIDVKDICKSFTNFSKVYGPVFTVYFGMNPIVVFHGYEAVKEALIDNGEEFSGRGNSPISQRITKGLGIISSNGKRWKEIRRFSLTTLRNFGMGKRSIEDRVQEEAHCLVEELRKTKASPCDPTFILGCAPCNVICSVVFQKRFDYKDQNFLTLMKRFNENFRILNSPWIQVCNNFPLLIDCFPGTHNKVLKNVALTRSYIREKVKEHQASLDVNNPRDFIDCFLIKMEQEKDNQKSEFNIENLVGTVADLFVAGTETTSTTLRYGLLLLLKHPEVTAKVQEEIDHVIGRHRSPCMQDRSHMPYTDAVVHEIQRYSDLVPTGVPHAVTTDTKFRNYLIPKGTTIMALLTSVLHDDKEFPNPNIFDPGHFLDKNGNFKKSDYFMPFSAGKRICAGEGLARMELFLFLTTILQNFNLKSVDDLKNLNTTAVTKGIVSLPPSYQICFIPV

[24] = Intrinsic clearance in human liver microsomes at 1 uM measured upto 30 mins by LC/MS analysis; assay type: ADME, Microsome; settings: read-out: CLH (converted)
[25] = target: T2, Cytochrome P450 1A2 (Homo sapiens, UniProt P05177); assay: Inhibition of CYP1A2 in human liver microsomes using 7-ethoxyresorufin as substrate in presence of NADPH by LC-MS/MS analysis; assay type: ADME, Microsome
T2 sequence (P05177 whole entry): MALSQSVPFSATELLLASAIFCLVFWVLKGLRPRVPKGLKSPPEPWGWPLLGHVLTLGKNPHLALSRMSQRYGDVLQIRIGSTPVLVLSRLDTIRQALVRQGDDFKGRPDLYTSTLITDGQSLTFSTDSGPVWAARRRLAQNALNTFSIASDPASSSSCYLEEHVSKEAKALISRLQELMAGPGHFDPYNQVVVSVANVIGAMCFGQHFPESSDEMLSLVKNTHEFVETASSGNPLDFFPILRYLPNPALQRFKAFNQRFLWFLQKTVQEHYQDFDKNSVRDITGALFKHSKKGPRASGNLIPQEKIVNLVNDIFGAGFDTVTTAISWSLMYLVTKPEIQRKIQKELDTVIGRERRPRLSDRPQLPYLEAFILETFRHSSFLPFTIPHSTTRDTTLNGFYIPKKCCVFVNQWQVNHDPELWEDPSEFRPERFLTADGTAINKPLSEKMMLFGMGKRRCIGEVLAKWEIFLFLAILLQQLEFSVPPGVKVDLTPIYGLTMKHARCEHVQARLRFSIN

[26] = Cmax in Sprague-Dawley rat at 3 mg/kg, po administered as cassette dose and measured upto 24 hrs by LC-MS/MS analysis; assay type: ADME, organism-based; settings: in vivo
[27] = Cmax in cynomolgus monkey at 2 mg/kg, po administered as cassette dose and measured upto 24 hrs by LC-MS/MS analysis; assay type: ADME, organism-based, Macaca fascicularis; settings: in vivo
[28] = target: T3, Cytochrome P450 2B6 (Homo sapiens, UniProt P20813); assay: Inhibition of CYP2B6 in human liver microsomes using bupropion as substrate in presence of NADPH by LC-MS/MS analysis; assay type: ADME, Microsome
T3 sequence (P20813 whole entry): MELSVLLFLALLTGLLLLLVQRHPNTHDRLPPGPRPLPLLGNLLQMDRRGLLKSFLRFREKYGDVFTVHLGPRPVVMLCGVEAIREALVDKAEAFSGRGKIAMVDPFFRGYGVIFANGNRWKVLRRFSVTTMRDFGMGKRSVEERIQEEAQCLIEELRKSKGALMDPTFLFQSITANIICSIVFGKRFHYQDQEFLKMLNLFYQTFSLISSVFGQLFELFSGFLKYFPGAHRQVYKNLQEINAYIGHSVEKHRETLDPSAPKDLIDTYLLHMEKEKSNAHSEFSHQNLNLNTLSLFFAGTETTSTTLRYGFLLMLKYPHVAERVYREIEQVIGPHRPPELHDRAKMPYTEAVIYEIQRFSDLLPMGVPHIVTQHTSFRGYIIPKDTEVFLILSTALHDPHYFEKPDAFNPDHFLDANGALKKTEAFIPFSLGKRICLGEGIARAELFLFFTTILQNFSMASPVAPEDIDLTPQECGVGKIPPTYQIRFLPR

[29] = target: Cytochrome P450 2C19 (Homo sapiens, UniProt P33261); assay: Inhibition of CYP2C19 in human liver microsomes using S-mephenytoin as substrate in presence of NADPH by LC-MS/MS analysis; assay type: ADME, Microsome
[30] = Volume of distribution at steady state in Sprague-Dawley rat at 0.5 mg/kg, iv administered as cassette dose and measured upto 24 hrs by LC-MS/MS analysis; assay type: ADME, organism-based; settings: in vivo, read-out: Vdss

Sequence of Cytochrome P450 2D6 (P10635 whole entry): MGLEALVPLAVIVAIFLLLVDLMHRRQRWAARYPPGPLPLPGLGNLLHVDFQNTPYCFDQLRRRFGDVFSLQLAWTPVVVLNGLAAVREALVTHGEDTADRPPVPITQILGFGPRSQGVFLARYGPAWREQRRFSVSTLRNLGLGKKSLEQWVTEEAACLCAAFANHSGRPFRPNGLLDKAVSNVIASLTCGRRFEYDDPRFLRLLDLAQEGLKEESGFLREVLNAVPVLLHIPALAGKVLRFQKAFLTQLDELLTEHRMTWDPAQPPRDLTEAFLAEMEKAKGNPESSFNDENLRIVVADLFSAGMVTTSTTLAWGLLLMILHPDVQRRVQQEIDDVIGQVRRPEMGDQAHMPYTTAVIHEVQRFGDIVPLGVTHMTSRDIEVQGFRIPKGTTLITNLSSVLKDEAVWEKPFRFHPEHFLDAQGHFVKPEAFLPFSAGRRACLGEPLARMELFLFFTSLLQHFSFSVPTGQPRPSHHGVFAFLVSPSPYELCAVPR
Sequence of Cytochrome P450 2C19 (P33261 whole entry): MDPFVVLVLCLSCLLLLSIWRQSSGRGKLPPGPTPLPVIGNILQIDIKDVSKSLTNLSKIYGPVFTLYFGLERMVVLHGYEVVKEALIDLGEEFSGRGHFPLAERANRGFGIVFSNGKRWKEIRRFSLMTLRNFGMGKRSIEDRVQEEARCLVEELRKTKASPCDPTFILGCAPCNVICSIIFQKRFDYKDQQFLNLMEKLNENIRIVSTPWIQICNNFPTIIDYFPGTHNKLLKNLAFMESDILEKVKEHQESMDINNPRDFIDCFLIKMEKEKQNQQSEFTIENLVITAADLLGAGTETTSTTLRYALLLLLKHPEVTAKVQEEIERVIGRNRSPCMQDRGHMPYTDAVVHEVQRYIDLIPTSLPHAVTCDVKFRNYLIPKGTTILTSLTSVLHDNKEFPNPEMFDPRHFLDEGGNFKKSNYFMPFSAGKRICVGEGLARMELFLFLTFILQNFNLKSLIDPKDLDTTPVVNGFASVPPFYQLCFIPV
Sequence of Cytochrome P450 3A4 (P08684 whole entry): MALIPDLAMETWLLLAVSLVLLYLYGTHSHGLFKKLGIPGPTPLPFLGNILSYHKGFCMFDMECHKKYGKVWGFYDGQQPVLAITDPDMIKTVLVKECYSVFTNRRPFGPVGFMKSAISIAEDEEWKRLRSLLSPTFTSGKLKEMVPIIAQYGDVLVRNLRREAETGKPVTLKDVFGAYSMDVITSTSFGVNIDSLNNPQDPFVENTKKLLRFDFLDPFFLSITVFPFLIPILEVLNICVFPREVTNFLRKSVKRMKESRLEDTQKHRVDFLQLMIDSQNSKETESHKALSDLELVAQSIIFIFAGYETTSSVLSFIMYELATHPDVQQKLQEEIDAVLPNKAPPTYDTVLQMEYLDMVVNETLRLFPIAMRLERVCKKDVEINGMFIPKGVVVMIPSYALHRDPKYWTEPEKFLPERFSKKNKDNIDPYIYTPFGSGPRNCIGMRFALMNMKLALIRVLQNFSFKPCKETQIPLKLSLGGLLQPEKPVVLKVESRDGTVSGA
Sequence of hERG (KCNH2) (Q12809 whole entry): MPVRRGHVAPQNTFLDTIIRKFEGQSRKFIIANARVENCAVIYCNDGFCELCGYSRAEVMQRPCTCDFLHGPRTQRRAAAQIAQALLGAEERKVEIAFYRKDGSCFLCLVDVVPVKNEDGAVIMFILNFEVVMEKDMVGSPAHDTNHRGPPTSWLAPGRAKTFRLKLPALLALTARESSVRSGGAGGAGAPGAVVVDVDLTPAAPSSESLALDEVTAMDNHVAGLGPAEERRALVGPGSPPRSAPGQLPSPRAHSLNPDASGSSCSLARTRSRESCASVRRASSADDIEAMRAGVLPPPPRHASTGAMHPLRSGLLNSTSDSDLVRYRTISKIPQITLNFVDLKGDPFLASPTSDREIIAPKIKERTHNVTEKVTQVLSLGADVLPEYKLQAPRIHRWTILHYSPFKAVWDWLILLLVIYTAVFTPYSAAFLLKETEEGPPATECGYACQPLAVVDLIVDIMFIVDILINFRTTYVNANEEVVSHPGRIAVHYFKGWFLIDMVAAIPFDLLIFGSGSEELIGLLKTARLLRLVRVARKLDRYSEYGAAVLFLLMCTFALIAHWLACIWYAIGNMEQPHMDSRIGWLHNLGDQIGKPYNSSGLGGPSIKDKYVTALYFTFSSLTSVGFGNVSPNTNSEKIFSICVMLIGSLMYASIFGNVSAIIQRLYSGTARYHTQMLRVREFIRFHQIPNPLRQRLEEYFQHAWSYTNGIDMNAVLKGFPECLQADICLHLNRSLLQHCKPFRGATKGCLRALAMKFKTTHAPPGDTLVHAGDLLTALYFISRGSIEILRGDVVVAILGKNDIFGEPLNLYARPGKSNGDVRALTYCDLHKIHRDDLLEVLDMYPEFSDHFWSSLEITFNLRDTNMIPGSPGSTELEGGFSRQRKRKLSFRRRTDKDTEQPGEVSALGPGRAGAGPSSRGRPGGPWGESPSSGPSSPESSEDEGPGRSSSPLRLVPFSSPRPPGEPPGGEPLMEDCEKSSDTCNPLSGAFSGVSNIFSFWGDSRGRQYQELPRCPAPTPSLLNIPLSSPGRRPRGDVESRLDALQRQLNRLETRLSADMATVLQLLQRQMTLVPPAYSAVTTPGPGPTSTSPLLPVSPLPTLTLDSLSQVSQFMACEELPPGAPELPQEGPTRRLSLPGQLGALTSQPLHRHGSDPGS
Sequence of Cytochrome P450 2C9 (P11712 whole entry): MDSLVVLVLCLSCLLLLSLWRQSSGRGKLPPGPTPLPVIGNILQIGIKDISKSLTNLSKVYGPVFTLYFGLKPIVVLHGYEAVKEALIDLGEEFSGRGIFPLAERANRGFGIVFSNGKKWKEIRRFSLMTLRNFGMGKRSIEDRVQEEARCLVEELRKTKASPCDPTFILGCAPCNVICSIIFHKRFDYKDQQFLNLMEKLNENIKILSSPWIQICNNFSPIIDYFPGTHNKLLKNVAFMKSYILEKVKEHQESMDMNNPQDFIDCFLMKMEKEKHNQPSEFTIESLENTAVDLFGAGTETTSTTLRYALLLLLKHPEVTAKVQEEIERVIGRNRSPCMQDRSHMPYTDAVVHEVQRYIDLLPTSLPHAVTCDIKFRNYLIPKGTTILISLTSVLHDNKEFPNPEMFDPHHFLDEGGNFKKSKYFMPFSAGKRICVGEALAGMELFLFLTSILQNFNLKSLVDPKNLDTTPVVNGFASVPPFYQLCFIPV

## CC(C)(O)Cn1cc(-c2nc(NC3CCN(S(=O)(=O)C4CC4)CC3)ncc2C(F)(F)F)cn1
[1]
  half-life: 2.6 h
[2]
  half-life: 2 h
[3]
  fraction unbound at 2 h: 0.12
[4]
  inhibition at 10 µM: 6.6%
[5]
  Vd: 0.4 L/kg
[6]
  solubility: > 400 µg/mL
[7]
  inhibition in vivo at 30 mg/kg: ~50%
[8]
  QH: 9%
[9]
  AUC at 24 h: 5.65 µM·h
[10]
  Activity: Non-Toxic
[11]
  Papp A→B at 2 h, 50 µM: 13 ×10⁻⁶ cm/s
[12]
  Activity: Non-Toxic
[13]
  inhibition in vivo at 30 mg/kg: 38%
[14]
  Cp: Bld
[15]
  bioavailability: 21%
[16]
  bioavailability: 51%
[17]
  IC50: > 25 µM
[18]
  QH: 130%
[19]
  AUC at 24 h: 0.751 µM·h
[20]
  IC50: > 25 µM
[21]
  Activity: Non-Toxic
[22]
  IC50: > 25 µM
[23]
  IC50: > 25 µM
[24]
  CLint scaled at 1 µM: 8.33 mL/min/kg
[25]
  IC50: > 25 µM
[26]
  Cmax: 757 nM
[27]
  Cmax: 962 nM
[28]
  IC50: > 25 µM
[29]
  IC50: > 25 µM
[30]
  Vd: 1.8 L/kg
